Where two headings read alike, the source gives them in different places.
Key:
Format in all cases: cell-based
A375 = experiment: Cancer cell proliferation inhibition, CCK-8, 72 hours
In short: (§1)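 A375 cells (2×10^3/well) attached overnight, then received 9 three-fold dilutions (0.0015-10 μM). K562 and Ba/F3-T315I (1×10^4/well) were given 9-point series (3-fold and 5-fold respectively), final 0-10 μM. After 72 h at 37°C, CCK-8 was added for 2 h; blank-subtracted OD450 gave IC50.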

T315I (Ba/F3) = molecular target: T1, T315I (Ba/F3) (Homo sapiens, UniProt P00519, T315I, cells depend on it); experiment: as above; details: read-out: T315I (Ba/F3) IC50
T1 construct: fused on or other part: P11274 (Breakpoint cluster region protein)
In short: as §1

K562 = experiment: as above
In short: as §1

M-NFS-60 = experiment: as above
Procedure: MTS assay was performed to evaluate the cancer cell proliferation inhibition (cancer cell apoptosis) effect of the compounds of examples of the present invention. Particularly, the assay was performed using the cancer cell lines GIST-T1, GIST-T1/816, GIST-430, GIST-430/654, GIST-R1, GIST-R3, M-NFS-60, RetParental (Ba/F3), Retwt (Ba/F3), RetV804M (Ba/F3), RET (LC2/ad-CDC6), FYN (MCP-1), FYN (FN), MDA-MB-231, Huh7, K562, T315I(Ba/F3), SK-MEL-28 and A375. Cell culture was performed using a medium suitable for each cell line.
M-NFS-60 cell line was cultured in the complete growth medium prepared by adding 10% FBS, 0.05 mM 2-mercaptoethanol and 62 ng of human M-CSF to RPMI. When the confluence reached 80% in T-75 flask, the cells were collected in a 50 ml tube for seeding, followed by centrifugation at 800 rpm for 5 minutes. The cells were suspended in 10 mL of growth medium. The cell number was counted by using a hematocytometer to determine the necessary cell number and the medium volume for seeding. The cells were seeded in a 96-well plate at the density of 20000 cells/well (200 μL/well), followed by stabilization in a 37° C. CO2 incubator, while the compounds of the present invention were prepared. The compounds of the present invention were serially diluted with DMSO at the ratio of 1/3 with setting the maximum concentration at 1968 nM, which were loaded in a new V-bottom 96-well plate, resulting in the preparation of total 11 concentrations including the DMSO control. The cells that had been placed in the incubator were taken out, to which the compounds of the present invention were added (2 μl/well). The plate treated with the compounds was cultured in a 37° C. CO2 incubator for 72 hours. 72 hours later, the plate treated with the compounds was taken out, to which CCK-8 solution was treated (20 μl/well). After well mixing, the plate was further cultured in a 37° C. CO2 incubator for 2 hours. Then, OD450 was measured by using a microplate reader. To obtain accurate results, the wells displaying bubbles were eliminated from the measurement.

MDA-MB-231 = experiment: Real time cell proliferation, IncuCyte ZOOM, 72 hours; details: Homo sapiens, MDA-MB-231, 72 h
FYN (MCP-1) = experiment: Cancer cell proliferation inhibition, MTS assay, 72 hours
In short: (§2)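 3,000 cells/well, 24 h pre-culture (37° C, 5% CO2); serial dilution of compound, top 50 μM, DMSO 0.05% v/v; 72 h exposure; MTS/PMS 2 h, OD450. IC50 = concentration giving 50% inhibition relative to DMSO control, n = 3 data sets.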

SK-MEL-28 = experiment: as above; details: Homo sapiens
In short: as §2

Huh7 = experiment: as above; details: Homo sapiens, Huh-7
In short: as §2

RET (LC2/ad-CDC6) = experiment: as above
In short: as §2

IC50 (A375; Homo sapiens, A-375, 72 h) [nM]	GI50 (T315I (Ba/F3)) [nM]	IC50 (K562; Homo sapiens, K562, 72 h) [nM]	IC50 (M-NFS-60) [nM]	IC50 (MDA-MB-231) [nM]	IC50 (FYN (MCP-1)) [nM]	IC50 (SK-MEL-28) [nM]	IC50 (Huh7) [nM]	IC50 (RET (LC2/ad-CDC6); 72 h) [nM]	IC50 (A375) [nM]	IC50 (K562) [nM]	IC50 (RET (LC2/ad-CDC6)) [nM]	SMILES
3360	234	14	1060	1560	1330	1450	1750	< 100				Cc1ccc(Nc2cccn3c(C#Cc4cc(C(=O)Nc5ccc(CN6CCN(C)CC6)c(C(F)(F)F)c5)ccc4C)cnc23)nc1 [Example 20, 4-methyl-N-(4-((4-methylpiperazin-1-yl)methyl)-3-(trifluoromethyl)phenyl)-3-((8-((5-methylpyridin-2-yl)amino)imidazo[1,2-a]pyridin-3-yl)ethynyl)benzamide]
140	37.5	< 1	56.2	318	320	803	91	< 10				CCn1cc(Nc2cccn3c(C#Cc4cc(C(=O)Nc5ccc(CN6CCN(C)CC6)c(C(F)(F)F)c5)ccc4C)cnc23)cn1 [Example 22, 3-((8-((1-ethyl-1H-pyrazol-4-yl)amino)imidazo[1,2-a]pyridin-3-yl)ethynyl)-4-methyl-N-(4-((4-methylpiperazin-1-yl)methyl)-3-(trifluoromethyl)phenyl)benzamide]
142	39	< 1		342	270	917	73.8	< 10				CCN1CCN(Cc2ccc(NC(=O)c3ccc(C)c(C#Cc4cnc5c(Nc6cnn(CC)c6)cccn45)c3)cc2C(F)(F)F)CC1 [Example 23, 3-((8-((1-ethyl-1H-pyrazol-4-yl)amino)imidazo[1,2-a]pyridin-3-yl)ethynyl)-N-(4-((4-ethylpiperazin-1-yl)methyl)-3-(trifluoromethyl)phenyl)-4-methylbenzamide]
4460	60.2	< 1	56.9	3060	1500	> 10000	2020	< 1000				Cc1ccc(C(=O)Nc2cccc(C(F)(F)F)c2)cc1C#Cc1cnc2c(Nc3cnn(CCCN(C)C)c3)cccn12 [Example 27, 3-((8-((1-(3-(dimethylamino)propyl)-1H-pyrazol-4-yl)amino)imidazo[1,2-a]pyridin-3-yl)ethynyl)-4-methyl-N-(3-(trifluoromethyl)phenyl)benzamide]
	102			963	3130	717	30		292	5	< 100	Cc1ccc(C(=O)Nc2ccc(CN3CCN(C)[C@H](C)C3)c(C(F)(F)F)c2)cc1C#Cc1cnc2c(Nc3cnn(C(C)C)c3)cccn12 [Example 29, (R)—N-(4-((3,4-dimethylpiperazin-1-yl)methyl)-3-(trifluoromethyl)phenyl)-3-((8-((1-isopropyl-1H-pyrazol-4-yl)amino)imidazo[1,2-a]pyridin-3-yl)ethynyl)-4-methylbenzamide]
152	54.2	< 1	63.6	212	770	482	64					Cc1ccc(C(=O)Nc2ccc(CN3CCN(C)[C@H](C)C3)c(C(F)(F)F)c2)cc1C#Cc1cnc2c(Nc3cnn(C)c3)cccn12 [Example 31, (R)—N-(4-((3,4-dimethylpiperazin-1-yl)methyl)-3-(trifluoromethyl)phenyl)-4-methyl-3-((8-((1-methyl-1H-pyrazol-4-yl)amino)imidazo[1,2-a]pyridin-3-yl)ethynyl)benzamide]
406	60.4	< 1	64.2	456	890	1150	107					Cc1ccc(C(=O)Nc2ccc(CN3CCC(N(C)C)C3)c(C(F)(F)F)c2)cc1C#Cc1cnc2c(Nc3cnn(C)c3)cccn12 (stereo not drawn) [Example 32, N-(4-((3-(dimethylamino)pyrrolidin-1-yl)methyl)-3-(trifluoromethyl)phenyl)-4-methyl-3-((8-((1-methyl-1H-pyrazol-4-yl)amino)imidazo[1,2-a]pyridin-3-yl)ethynyl)benzamide]
452	156	< 1	32.1	444	2040		82					CCN1CCN(Cc2ccc(NC(=O)c3ccc(C)c(C#Cc4cnc5c(Nc6cnn(CCCN(C)C)c6)cccn45)c3)cc2C(F)(F)F)CC1 [Example 33, 3-((8-((1-(3-(dimethylamino)propyl)-1H-pyrazol-4-yl)amino)imidazo[1,2-a]pyridin-3-yl)ethynyl)-N-(4-((4-ethylpiperazin-1-yl)methyl)-3-(trifluoromethyl)phenyl)-4-methylbenzamide]
1280	247	< 1		1110	1120		66					Cc1ccc(C(=O)Nc2ccc(CN3CCC(N(C)C)C3)c(C(F)(F)F)c2)cc1C#Cc1cnc2c(Nc3cnn(CCCN(C)C)c3)cccn12 (stereo not drawn) [Example 35, 3-((8-((1-(3-(dimethylamino)propyl)-1H-pyrazol-4-yl)amino)imidazo[1,2-a]pyridin-3-yl)ethynyl)-N-(4-((3-(dimethylamino)pyrrolidin-1-yl)methyl)-3-(trifluoromethyl)phenyl)-4-methylbenzamide]
> 10000	195	16		> 10000	9520			> 10				Cc1ccc(C(=O)Nc2ccc(CN3CCC(F)(F)CC3)c(C(F)(F)F)c2)cc1C#Cc1cnc2c(Nc3cnn(C)c3)cccn12 [Example 52, N-(4-((4,4-difluoropiperidin-1-yl)methyl)-3-(trifluoromethyl)phenyl)-4-methyl-3-((8-((1-methyl-1H-pyrazol-4-yl)amino)imidazo[1,2-a]pyridin-3-yl)ethynyl)benzamide]
229	34.8	< 1	21.3	289	1470			> 10				CN1CCN(Cc2ccc(NC(=O)c3cccc(C#Cc4cnc5c(Nc6cnn(C)c6)cccn45)c3)cc2C(F)(F)F)CC1 [Example 60, 3-((8-((1-methyl-1H-pyrazol-4-yl)amino)imidazo[1,2-a]pyridin-3-yl)ethynyl)-N-(4-((4-methylpiperazin-1-yl)methyl)-3-(trifluoromethyl)phenyl)benzamide]
172	58.6	< 1	45.3	268	1170			> 10				CN1CCN(Cc2ccc(NC(=O)c3ccc(F)c(C#Cc4cnc5c(Nc6cnn(C)c6)cccn45)c3)cc2C(F)(F)F)CC1 [Example 61, 4-fluoro-3-((8-((1-methyl-1H-pyrazol-4-yl)amino)imidazo[1,2-a]pyridin-3-yl)ethynyl)-N-(4-((4-methylpiperazin-1-yl)methyl)-3-(trifluoromethyl)phenyl)benzamide]
132	82.4	< 1	46	320	1870		89					Cc1ccc(NC(=O)c2ccc(CN3CCN(C)CC3)c(C(F)(F)F)c2)cc1C#Cc1cnc2c(Nc3cnn(C)c3)cccn12 [Example 80, N-(4-methyl-3-((8-((1-methyl-1H-pyrazol-4-yl)amino)imidazo[1,2-a]pyridin-3-yl)ethynyl)phenyl)-4-((4-methylpiperazin-1-yl)methyl)-3-(trifluoromethyl)benzamide]

Source: patent US10870647B2, “Imidazopyridine derivative, method for preparing same, and pharmaceutical composition containing same as active ingredient for preventing or treating cancer” (DAEGU-GYEONGBUK MEDICAL INNOVATION FOUNDATION, priority 2016, dated 2020)
